The target of the assay is T1, prostanoid EP3 receptors (Homo sapiens, UniProt P43115).
T1 sequence (P43115 1-365 isoform P43115-3): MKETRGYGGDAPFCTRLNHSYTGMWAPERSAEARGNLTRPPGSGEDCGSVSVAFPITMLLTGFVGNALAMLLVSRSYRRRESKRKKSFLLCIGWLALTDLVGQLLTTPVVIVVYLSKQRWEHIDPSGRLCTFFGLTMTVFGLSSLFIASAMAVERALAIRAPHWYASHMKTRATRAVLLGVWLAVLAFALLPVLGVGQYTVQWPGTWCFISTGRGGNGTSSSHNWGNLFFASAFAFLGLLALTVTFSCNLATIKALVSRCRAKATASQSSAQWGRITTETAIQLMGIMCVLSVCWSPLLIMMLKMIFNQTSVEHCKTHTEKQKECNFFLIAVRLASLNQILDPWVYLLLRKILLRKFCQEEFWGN
Briefly: binding on prostanoid EP3 receptors (method of Abramovitz et al.). The settings on record: read-out: Activity (EP3 receptor binding IC50). Here is the method:
The compounds of the invention may be assayed for their binding on prostanoid EP3 receptors according to the method of Abramovitz et al. [Bioch. Biophys. Actas 1473, 285-293 (2000)]. All of the examples in the tables below have been synthesized, characterized and tested for EP3 receptor binding.
The compounds of the invention were assayed for their binding on prostanoid EP3 receptors according to the method of Abramovitz et al. [Bioch. Biophys. Acta, 1473, 285-293 (2000)]. […] Compounds with IC50<1 μM are shown as +++; compounds with IC50<1-10 μM are shown as ++; and compounds with IC50>10 μM are shown as +.

pIC50: −log10 of the molar value.

The pIC50 is −log10 of the IC50, conventionally taken in molar units.

For the molecule `Cc1cn(Cc2ccc3ccccc3c2)c2c(-c3cc(NS(=O)(=O)c4ccc(F)c(F)c4)no3)cc(F)cc12` [Compound B38, 3,4-Difluoro-N-[5-(5-fluoro-3-methyl-1-naphthalen-2-ylmethyl-1H-indol-7-yl)-isoxazol-3-yl]-benzenesulfonamide], the pIC50 is greater than 6.00.

For the molecule `Cc1cn(Cc2ccc3ccccc3c2)c2c(-c3cc(NS(=O)(=O)c4ccc(Cl)c(Cl)c4)no3)cc(F)cc12` [Compound B40, 3,4-Dichloro-N-[5-(5-fluoro-3-methyl-1-naphthalen-2-ylmethyl-1H-indol-7-yl)-isoxazol-3-yl]-benzenesulfonamide], the pIC50 is greater than 6.00.

`Cc1cn(Cc2ccc(Cl)cc2Cl)c2c(-c3nnc(NC(=O)C(F)(F)F)o3)cc(F)cc12` [Compound B10, N-{5-[1-(2,4-Dichloro-benzyl)-5-fluoro-3-methyl-1H-indol-7-yl]-[1,3,4]oxadiazol-2-yl}-2,2,2-trifluoro-acetamide]: the pIC50 was 5.00 to 6.00.

As for `Cc1cn(Cc2ccc(Cl)cc2Cl)c2c(-c3nnc(NC(=O)c4ccno4)o3)cc(F)cc12` [Compound B24, Isoxazole-5-carboxylic acid {5-[1-(2,4-dichloro-benzyl)-5-fluoro-3-methyl-1H-indol-7-yl]-[1,3,4]oxadiazol-2-yl}-amide], the pIC50 is 5.00 to 6.00.

Turning to `Cc1cn(Cc2ccc(Cl)cc2Cl)c2c(-c3nnc(NC(=O)c4ccc(F)c(F)c4)o3)cc(F)cc12` [Compound B26, N-{5-[1-(2,4-Dichloro-benzyl)-5-fluoro-3-methyl-1H-indol-7-yl]-[1,3,4]oxadiazol-2-yl}-3,4-difluoro-benzamide], the negative-log IC50 (pIC50) was greater than 6.00.

As for `Cc1cn(Cc2ccc(Cl)cc2Cl)c2c(-c3nnc(NC(=O)c4ccc5c(c4)OC(F)(F)O5)o3)cc(F)cc12` [Compound B29, 2,2-Difluoro-benzo[1,3]dioxole-5-carboxylic acid {5-[1-(2,4-dichloro-benzyl)-5-fluoro-3-methyl-1H-indol-7-yl]-[1,3,4]oxadiazol-2-yl}-amide], the pIC50 is greater than 6.00.

On to `Cc1cn(Cc2ccc(Cl)cc2Cl)c2c(-c3cc(NS(=O)(=O)c4cc(F)c(F)cc4F)no3)cc(F)cc12` [Compound B36, N-{5-[1-(2,4-Dichloro-benzyl)-5-fluoro-3-methyl-1H-indol-7-yl]-isoxazol-3-yl}-2,4,5-trifluoro-benzenesulfonamide], for which the pIC50 is greater than 6.00.

Turning to `Cc1cn(Cc2ccc(F)c(F)c2)c2c(-c3cc(NS(C)(=O)=O)no3)cc(F)cc12` [Compound B16, N-{5-[1-(3,4-Difluoro-benzyl)-5-fluoro-3-methyl-1H-indol-7-yl]-isoxazol-3-yl}-methanesulfonamide], the pIC50 is less than 5.00.

`Cc1cn(Cc2ccc(F)c(F)c2)c2c(-c3cc(NS(=O)(=O)c4cc(F)c(F)cc4F)no3)cc(F)cc12` [Compound B33, N-{5-[1-(3,4-Difluoro-benzyl)-5-fluoro-3-methyl-1H-indol-7-yl]-isoxazol-3-yl}-2,4,5-trifluoro-benzenesulfonamide]: the pIC50 is greater than 6.00.

For the molecule `Cn1cc(Cc2ccc3ccccc3c2)c2c(-c3ccc(NC(=O)C(F)(F)F)cc3)cccc21` [Compound B18, 2,2,2-Trifluoro-N-[4-(1-methyl-3-naphthalen-2-ylmethyl-1H-indol-4-yl)-phenyl]-acetamide], the pIC50 is greater than 6.00.

As to `Cc1cn(Cc2ccc(Cl)cc2Cl)c2c(-c3ccc(NS(=O)(=O)c4cc(Cl)c(Cl)s4)nc3)cc(F)cc12` [Compound B46, 4,5-Dichloro-thiophene-2-sulfonic acid {5-[1-(2,4-dichloro-benzyl)-5-fluoro-3-methyl-1H-indol-7-yl]-pyridin-2-yl}-amide], the pIC50 was greater than 6.00.

`Cc1cn(Cc2ccc(Cl)cc2Cl)c2c(-c3nnc(NC(=O)c4ccco4)o3)cc(F)cc12` [Compound B30, Furan-2-carboxylic acid {5-[1-(2,4-dichloro-benzyl)-5-fluoro-3-methyl-1H-indol-7-yl]-[1,3,4]oxadiazol-2-yl}-amide]: the negative logarithm of the IC50 (pIC50) is greater than 6.00.

Regarding `Cc1cn(Cc2ccc(Cl)cc2Cl)c2c(-c3nnc(NS(=O)(=O)c4cc(F)c(F)cc4F)o3)cc(F)cc12` [Compound B12, N-{5-[1-(2,4-Dichloro-benzyl)-5-fluoro-3-methyl-1H-indol-7-yl]-[1,3,4]oxadiazol-2-yl}-2,4,5-trifluoro-benzenesulfonamide], the pIC50 is greater than 6.00.

For the molecule `Cn1cc(Cc2ccc3ccccc3c2)c2c(-c3ccc(NS(C)(=O)=O)cc3)cccc21` [Compound B05, N-[4-(1-Methyl-3-naphthalen-2-ylmethyl-1H-indol-4-yl)-phenyl]-methanesulfonamide], the pIC50 was 5.00 to 6.00.

In the case of `Cc1cn(Cc2ccc(Cl)cc2Cl)c2c(-c3nnc(NC(=O)c4ccc(Cl)cc4Cl)o3)cc(F)cc12` [Compound B28, 2,4-Dichloro-N-{5-[1-(2,4-dichloro-benzyl)-5-fluoro-3-methyl-1H-indol-7-yl]-[1,3,4]oxadiazol-2-yl}-benzamide], the pIC50 is 5.00 to 6.00.

Turning to `COc1cccc(CN2C(=O)CC3(C)CCCC(c4csc(NS(=O)(=O)c5ccc(F)c(F)c5)n4)=C23)c1` (stereo not shown) [Compound B47, 3,4-Difluoro-N-{4-[1-(3-methoxy-benzyl)-3a-methyl-2-oxo-2,3,3a,4,5,6-hexahydro-1H-indol-7-yl]-thiazol-2-yl}-benzenesulfonamide], the pIC50 was greater than 6.00.

With `Cn1cc(Cc2ccc3ccccc3c2)c2c(-c3cc(NS(=O)(=O)c4cc(Cl)c(Cl)s4)n[nH]3)cccc21` [Compound B01, 4,5-Dichloro-thiophene-2-sulfonic acid [5-(1-methyl-3-naphthalen-2-ylmethyl-1H-indol-4-yl)-1H-pyrazol-3-yl]-amide], the pIC50 is greater than 6.00.

As for `Cc1cn(Cc2ccc(Cl)cc2Cl)c2c(-c3nnc(NS(=O)(=O)c4cc(Cl)c(Cl)s4)o3)cc(F)cc12` [Compound B13, 4,5-Dichloro-thiophene-2-sulfonic acid {5-[1-(2,4-dichloro-benzyl)-5-fluoro-3-methyl-1H-indol-7-yl]-[1,3,4]oxadiazol-2-yl}-amide], the pIC50 is greater than 6.00.

For the molecule `Cc1cn(Cc2ccc(Cl)cc2Cl)c2c(-c3nnc(NS(C)(=O)=O)o3)cc(F)cc12` [Compound B11, N-{5-[1-(2,4-Dichloro-benzyl)-5-fluoro-3-methyl-1H-indol-7-yl]-[1,3,4]oxadiazol-2-yl}-methanesulfonamide], the pIC50 was 5.00 to 6.00.

As for `Cc1cn(Cc2ccc(F)c(F)c2)c2c(-c3cc(NS(=O)(=O)c4cc(Cl)c(Cl)s4)no3)cc(F)cc12` [Compound B31, 4,5-Dichloro-thiophene-2-sulfonic acid {5-[1-(3,4-difluoro-benzyl)-5-fluoro-3-methyl-1H-indol-7-yl]-isoxazol-3-yl}-amide], the pIC50 is greater than 6.00.

For the molecule `Cc1cn(Cc2ccc(F)c(F)c2)c2c(-c3cc(NS(C)(=O)=O)n(C)n3)cc(F)cc12` [Compound B14, N-{5-[1-(3,4-Difluoro-benzyl)-5-fluoro-3-methyl-1H-indol-7-yl]-2-methyl-2H-pyrazol-3-yl}-methanesulfonamide], the negative-log IC50 (pIC50) is 5.00 to 6.00.

On to `Cc1cn(Cc2ccc(Cl)cc2Cl)c2c(-c3cc(NS(=O)(=O)c4cc(Cl)c(Cl)s4)no3)cc(F)cc12` [Compound B34, 4,5-Dichloro-thiophene-2-sulfonic acid {5-[1-(2,4-dichloro-benzyl)-5-fluoro-3-methyl-1H-indol-7-yl]-isoxazol-3-yl}-amide], for which the negative logarithm of the IC50 (pIC50) is greater than 6.00.

Turning to `Cc1cn(Cc2ccc(Cl)cc2Cl)c2c(-c3nnc(NC(=O)c4ccc(F)cc4F)o3)cc(F)cc12` [Compound B27, N-{5-[1-(2,4-Dichloro-benzyl)-5-fluoro-3-methyl-1H-indol-7-yl]-[1,3,4]oxadiazol-2-yl}-2,4-difluoro-benzamide], the pIC50 was 5.00 to 6.00.

For `Cc1cn(Cc2ccc(Cl)cc2Cl)c2c(-c3nnc(NC(=O)c4cc(Cl)cc(Cl)c4)o3)cc(F)cc12` [Compound B25, 3,5-Dichloro-N-{5-[1-(2,4-dichloro-benzyl)-5-fluoro-3-methyl-1H-indol-7-yl]-[1,3,4]oxadiazol-2-yl}-benzamide], the pIC50 was less than 5.00.

Consider `CC(=O)Nc1ccc(-c2cccc3c2c(Cc2ccc4ccccc4c2)cn3C)cc1` [Compound B17, N-[4-(1-Methyl-3-naphthalen-2-ylmethyl-1H-indol-4-yl)-phenyl]-acetamide], for which the negative-log IC50 (pIC50) was 5.00 to 6.00.

Consider `Cc1cn(Cc2ccc(Cl)cc2Cl)c2c(-c3nnc(NS(=O)(=O)c4ccc(Cl)c(Cl)c4)o3)cc(F)cc12` [Compound B20, 3,4-Dichloro-N-{5-[1-(2,4-dichloro-benzyl)-5-fluoro-3-methyl-1H-indol-7-yl]-[1,3,4]oxadiazol-2-yl}-benzenesulfonamide], for which the negative logarithm of the IC50 (pIC50) is greater than 6.00.

Consider `Cc1cn(Cc2ccc(Cl)cc2Cl)c2c(-c3nnc(NS(=O)(=O)c4ccc(F)c(F)c4)o3)cc(F)cc12` [Compound B19, N-{5-[1-(2,4-Dichloro-benzyl)-5-fluoro-3-methyl-1H-indol-7-yl]-[1,3,4]oxadiazol-2-yl}-3,4-difluoro-benzenesulfonamide], for which the pIC50 is greater than 6.00.

Regarding `Cn1cc(Cc2ccc3ccccc3c2)c2c(-c3cccc(NS(=O)(=O)c4cc(Cl)c(Cl)s4)c3)cccc21` [Compound B03, 4,5-Dichloro-thiophene-2-sulfonic acid[3-(1-methyl-3-naphthalen-2-ylmethyl-1H-indol-4-yl)-phenyl]-amide], the pIC50 is 5.00 to 6.00.

The values above are taken from US20060142348A1, “Aryl sulfonamide peri-substituted bicyclics for occlusive artery disease” (deCODE Chemistry, Inc., priority 2004, published 2006).
